Assay results reported in paper PMC8085013, “Mixture interactions at mammalian olfactory receptors are dependent on the cellular environment” (Scientific Reports, 2021).
Entries after “also recorded” stand apart in the source; their conditions may differ.

Legend:
Type in all cases: cell-based
mouse Olfr73 [1] = biological target: T1, mouse Olfr73 (Mus musculus, UniProt Q920P2); experiment: GCaMP3 calcium imaging of mouse OSNs ectopically expressing Olfr73 (rAAV2/5), 5-s odorant pulse; settings: for Agonism/antagonism, OSN Ca2+ Mouse: strong agonist 100 µM, putative antagonist 1 mM, single or as pair; for Effect on the response to eugenol in a binary mix: eugenol 100 µM or 10 µM plus putative antagonist
T1 sequence (Q920P2 1-313): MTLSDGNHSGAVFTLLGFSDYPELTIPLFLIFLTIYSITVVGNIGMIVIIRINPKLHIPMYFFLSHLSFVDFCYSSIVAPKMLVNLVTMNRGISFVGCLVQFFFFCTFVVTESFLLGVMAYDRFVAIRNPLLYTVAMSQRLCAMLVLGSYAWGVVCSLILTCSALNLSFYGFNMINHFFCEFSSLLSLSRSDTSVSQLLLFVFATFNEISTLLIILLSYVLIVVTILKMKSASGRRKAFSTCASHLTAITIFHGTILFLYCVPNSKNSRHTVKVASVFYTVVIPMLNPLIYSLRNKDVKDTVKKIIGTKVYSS

mouse Olfr73 [2] = biological target: T1, mouse Olfr73; experiment: Calcium imaging of HEK293 cells expressing Olfr73 with Gα15, short 5-s odorant pulse; settings: for Response to ligand applied alone: HEK293, Gα15, 5-s pulse; for Effect on the response to eugenol in a binary mix: HEK293, Gα15, eugenol 100 µM; for Agonism/antagonism, HEK293 short odor Ca2+ G15: 5-s pulse, strong agonist 100 µM, putative antagonist 1 mM, single or as pair
mouse Olfr73 [3] = biological target: T1, mouse Olfr73; experiment: cell-based; settings: for Response to ligand applied alone: HEK293, Gαq11/ß1/γ13, 5-s pulse; for Agonism/antagonism, HEK293 short odor Ca2+ Gq11: 5-s pulse, strong agonist 100 µM, putative antagonist 1 mM, single or as pair
mouse Olfr73 [4] = biological target: T1, mouse Olfr73; experiment: Calcium imaging of HEK293 cells expressing Olfr73 with Gs/olf, short 5-s odorant pulse; settings: for Effect on the response to eugenol or vanillin in a binary mix: agonist 100 µM, test ligand 1 mM; for Agonism/antagonism, HEK293 short odor Ca2+ Gs/olf: strong agonist 100 µM, putative antagonist 1 mM, single or as pair
mouse Olfr73 [5] = biological target: T1, mouse Olfr73; experiment: Cre-SEAP cAMP reporter assay, HEK293 cells co-expressing untagged Olfr73 and Gs/olf, prolonged odorant
Description: cAMP production was measured as previously described. HEK293T cells were co-transfected with a guanine nucleotide exchange factor Ric-8b (50 ng; a gift from Dr. Malnic, Universidade de São Paulo, Brazil), Gαolf (50 ng), RTP1s (100 ng) and untagged Olfr73 (1.5 μg). Cells were also transfected with 1.5 μg of a pCRE-SEAP, where the expression of the secreted alkaline phosphatase (SEAP) is under regulation of the cAMP responsive element. A plasmid pTAL-SEAP missing the Cre element was used as a negative control. Cells were also transfected with 50 ng of a pcDNA5/TO/LacZ (Invitrogen) for DNA concentration normalization. At 24 h post-transfection, the cells were re-seeded for SEAP analysis and odorants were added at the indicated dilutions at 48 h post-transfection. […] The supernatants were incubated for 30 min at 65 °C and then frozen until analysis. The cell pellets were washed with PBS and then lysed with reporter lysis buffer for β-galactosidase measurement following the manufacturer’s instructions (Promega). SEAP activity was measured by mixing 100 μl of supernatant with an equal amount of BluePhos substrate (KPL). Samples were monitored for color development at 630 nm in a microwell plate reader. SEAP activity was calculated by subtracting the responses of cells transfected in parallel with pTAL-SEAP and normalizing to β-gal activity. Average SEAP activity was determined after subtracting the response of cells not expressing an OR and is reported in arbitrary units ± standard deviation.

mouse Olfr73 [6] = biological target: T1, mouse Olfr73; experiment: GCaMP3 calcium imaging of HEK293T cells co-transfected with pTR-Olfr73-furin2A-GCaMP3 (untagged Olfr73) and Gα15, 5-s pulse; settings: for Response to ligand applied alone: HEK293T, untagged Olfr73, Gα15, 5-s pulse
mouse Olfr73 [7] = biological target: T1, mouse Olfr73; experiment: cAMP-dependent Ca2+ influx (CNGCmut, GCaMP3) in HEK293 cells with untagged Olfr73 and Gs/olf, 10-min odorant; settings: for Response to ligand applied alone, prolonged: 10-min application; for Response to ligand applied alone, prolonged / Agonism/antagonism, HEK293 long odor Ca2+ Gs/olf: eugenol 100 µM, MIEG 1 mM; for Agonism/antagonism, HEK293 long odor Ca2+ Gs/olf: prolonged 10-min odorant application
mouse Olfr73 [8] = biological target: T1, mouse Olfr73; experiment: GCaMP3 calcium imaging of rat OSNs ectopically expressing Olfr73 (rAAV2/5), 5-s odorant pulse
Olfr599 = Olfr599 (Mus musculus, UniProt Q8VG01); experiment: GCaMP3 calcium imaging of mouse OSNs ectopically expressing Olfr599 (rAAV2/5); settings: each at 100 µM, 5-s pulse
Description: Animals 4–6 weeks of age were used for experiments 7–21 days post-inoculation with rAAV2/5 encoding OR-furin2A-GCaMP3. Calcium imaging was performed as detailed previously. Tissue was prepared and mounted with the apical surface facing up. The chamber was transferred to the stage of an upright microscope (Zeiss Axioskop-2F) equipped with a 40×/0.75NA long distance water-immersion objective lens. Experimental solutions were applied for a duration of 5 s directly to the field of view through a 100 µm diameter needle made of fused silica and connected to a 9-channel Teflon manifold. Solution application was controlled by electronic valves (VC-6, Warner Instruments). The calcium response is presented as an increase of GCaMP3 fluorescence originating from the knob and underlying dendrite. The tissue was illuminated using a standard eGFP filter cube BP490 nm/ 535 nm (Omega Optical, USA) and the emitted light was collected at 530 nm (BP 530/20 nm, Omega Optical, USA) by a 12-bit cooled CCD camera (ORCA R2, Hamamatsu, Japan). […] Before processing, fluorescence intensity was corrected for the background. Each knob was assigned a region of interest (ROI) and changes in fluorescence intensity within each ROI were analyzed and expressed as the peak fractional change in fluorescent light intensity (F-Fo)/Fo where Fo is the baseline fluorescence before application of experimental solutions.

[9] = HEK293, vanillin 100 µM, MIEG 1 mM

Olfr599, sequence (Q8VG01 entry or part of it): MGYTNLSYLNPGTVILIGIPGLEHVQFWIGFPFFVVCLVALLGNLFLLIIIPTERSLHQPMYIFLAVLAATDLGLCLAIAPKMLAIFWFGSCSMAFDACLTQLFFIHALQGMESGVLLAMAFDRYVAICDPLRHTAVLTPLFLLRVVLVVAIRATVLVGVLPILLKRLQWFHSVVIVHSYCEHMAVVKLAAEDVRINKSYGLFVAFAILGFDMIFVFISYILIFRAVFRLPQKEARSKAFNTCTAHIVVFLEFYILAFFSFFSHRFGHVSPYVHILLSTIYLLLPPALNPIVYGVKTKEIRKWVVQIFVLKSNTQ

CCCCCOC(C)=O [Amyl acetate, amyl acetate]
Response to ligand applied alone (mouse Olfr73 [1]; mouse Olfr73-OSNs, 5-s pulse): variable responses

C=C(C)C1CC=C(C)C(=O)C1 (stereo not drawn) [Carvone]
Response to ligand applied alone (mouse Olfr73 [2]): non-agonist | Effect on the response to eugenol in a binary mix (mouse Olfr73 [2]): incapable | Response to ligand applied alone (mouse Olfr73 [3]): non-agonist | Effect on the response to eugenol in a binary mix (mouse Olfr73 [3]; HEK293, eugenol 100 µM, test ligand 1 mM, also with 30-s pre-incubation): no antagonism; also recorded: failed to antagonize | Response to ligand applied alone (mouse Olfr73 [4]; HEK293, Gs/olf, 5-s pulse): did not activate any response | Effect on the response to eugenol or vanillin in a binary mix (mouse Olfr73 [4]; HEK293, Gs/olf): no inhibiting effect

C=CCc1ccc(O)c(OC)c1 [Eugenol, eugenol]
Agonism/antagonism, HEK293 short odor Ca2+ G15 (mouse Olfr73 [2]): Agonist | EC50 (mouse Olfr73 [5]; HEK293 long odor, Cre/SEAP, Gs/olf, untagged Olfr73): 205 ± 27 µM | Response to ligand applied alone (mouse Olfr73 [3]): consistently activated calcium release | EC50 (mouse Olfr73 [3]; HEK293 short odor Ca2+, Gq11, response normalized to 5 mM eugenol): 184 ± 62 µM | EC50 (mouse Olfr73 [1]): 4.8 ± 1.1 µM | Response to ligand applied alone (mouse Olfr73 [1]; mouse Olfr73-OSNs, 5-s pulse): strongly activated; also recorded: consistently evoked a response in all cells | Response to ligand applied alone (mouse Olfr73 [6]): robustly activated | Response to ligand applied alone (mouse Olfr73 [6]; listed as eugenol): robust elevation of intracellular calcium; also recorded: robust calcium signal | Agonism/antagonism, HEK293 short odor Ca2+ Gs/olf (mouse Olfr73 [4]; 5-s pulse): Agonist | Response to ligand applied alone, prolonged (mouse Olfr73 [7]): sustained cAMP-dependent calcium influx | Agonism/antagonism, HEK293 long odor Ca2+ Gs/olf (mouse Olfr73 [7]): Agonist | EC50 (mouse Olfr73 [8]): 41 ± 12 µM | Sensitivity of rat versus mouse Olfr73-OSNs (mouse Olfr73 [8]; from EC50 values): nearly tenfold less sensitive

C/C=C/c1ccc2c(c1)OCO2 [Isosafrole]
Agonism/antagonism, HEK293 short odor Ca2+ G15 (mouse Olfr73 [2]): Antagonist | Agonism/antagonism, HEK293 short odor Ca2+ Gq11 (mouse Olfr73 [3]): Antagonist | Agonism/antagonism, OSN Ca2+ Mouse (mouse Olfr73 [1]; 5-s pulse): Agonist | Response relative to the response to eugenol (mouse Olfr73 [1]; ligand 1 mM, 5-s pulse, Olfr73-OSNs): 25% | Agonism/antagonism, HEK293 short odor Ca2+ Gs/olf (mouse Olfr73 [4]; 5-s pulse): Antagonist

C/C=C/c1ccc(OC)c(OC)c1 [Methylisoeugenol, methylisoeugenol]
Agonism/antagonism, HEK293 short odor Ca2+ G15 (mouse Olfr73 [2]): Antagonist | Effect on the response to vanillin, 30-sec pre-incubation (mouse Olfr73 [2]; HEK293, Gα15, vanillin 100 µM, MIEG 1 mM): complete inhibition | Agonism/antagonism, HEK293 long odor Cre/SEAP Gs/olf (mouse Olfr73 [5]; prolonged 30-min odorant application): Agonist | Response to ligand applied alone, Cre-SEAP (mouse Olfr73 [5]; prolonged application, 0 µM eugenol): generated cAMP | Interaction with eugenol in a binary mix, Cre-SEAP (mouse Olfr73 [5]; several concentrations of eugenol and MIEG, prolonged incubation): no antagonistic interaction | Agonism/antagonism, HEK293 short odor Ca2+ Gq11 (mouse Olfr73 [3]): Antagonist | Effect on the response to vanillin, 30-s pre-incubation (mouse Olfr73 [3]; [9]): near complete inhibition; also recorded: almost completely blocked | Effect on the response to vanillin, co-application (mouse Olfr73 [3]; [9]): only partially inhibited | Response to ligand applied alone (mouse Olfr73 [1]; mouse Olfr73-OSNs, 5-s pulse): evoked a measurable response | Response to ligand applied alone (mouse Olfr73 [1]; mouse Olfr73-OSNs, 5-s pulse, listed as MIEG): partial agonist | Response to ligand applied alone (mouse Olfr73 [1]; mouse Olfr73-OSNs, 5-s pulse, listed as methylisoeugenol): also elicited a response | EC50 (mouse Olfr73 [1]; mouse Olfr73-OSNs, Ca2+ (GCaMP3), 5-s odorant pulse, read-out: EC50): 430 ± 130 µM | Effect on the response to eugenol in a binary mix (mouse Olfr73 [1]; mouse Olfr73-OSNs, listed as MIEG): did not reduce the response; also recorded: not significantly changed | Response to ligand applied alone (mouse Olfr73 [6]; listed as MIEG): did not evoke any response; also recorded: did not elicit any response | Effect on the response to eugenol in a binary mix (mouse Olfr73 [6]; eugenol 100 µM, MIEG 1 mM, 5-s pulse): reduced the response; also recorded: significantly diminished | Agonism/antagonism, HEK293 short odor Ca2+ Gs/olf (mouse Olfr73 [4]; 5-s pulse): Antagonist | Effect on the response to eugenol or vanillin in a binary mix (mouse Olfr73 [4]; HEK293, Gs/olf): antagonized | Response to ligand applied alone, prolonged (mouse Olfr73 [7]): more slowly developing cAMP-dependent calcium influx; also recorded: significantly smaller than eugenol | Response to mixture with eugenol versus eugenol alone, prolonged (mouse Olfr73 [7]; 10 min, eugenol 100 µM and MIEG 1 mM): no significant difference | Agonism/antagonism, HEK293 long odor Ca2+ Gs/olf (mouse Olfr73 [7]): Agonist | Agonism/antagonism, OSN Ca2+ Rat (mouse Olfr73 [8]; 5-s pulse, strong agonist 100 µM, putative antagonist 1 mM): Agonist

COc1cc(C=O)ccc1O [Vanillin, vanillin]
Agonism/antagonism, HEK293 short odor Ca2+ Gs/olf (mouse Olfr73 [4]; 5-s pulse): Agonist

CC(=O)c1ccccc1 [acetophenone]
Response to ligand applied alone (mouse Olfr73 [1]; mouse Olfr73-OSNs, 5-s pulse): variable responses

C=CCc1cc(OC)c(O)c(-c2cc(CC=C)cc(OC)c2O)c1 [di-Eugenol]
Agonism/antagonism, HEK293 short odor Ca2+ G15 (mouse Olfr73 [2]): Antagonist | Agonism/antagonism, HEK293 short odor Ca2+ Gq11 (mouse Olfr73 [3]): Antagonist | Agonism/antagonism, OSN Ca2+ Mouse (mouse Olfr73 [1]; 5-s pulse): Inactive | Response to ligand applied alone (mouse Olfr73 [1]; mouse Olfr73-OSNs, 5-s pulse): failed to activate any response | Response to ligand applied alone (mouse Olfr73 [1]; mouse Olfr73-OSNs, 5-s pulse, listed as di-EG): did not elicit any response | Agonism/antagonism, HEK293 short odor Ca2+ Gs/olf (mouse Olfr73 [4]; 5-s pulse): Antagonist

CCC1c2cc(OC)c(O)cc2C(c2ccc(O)c(OC)c2)C1C (stereo not drawn) [di-Isoeugenol]
Agonism/antagonism, HEK293 short odor Ca2+ G15 (mouse Olfr73 [2]): Antagonist | Response to ligand applied alone (mouse Olfr73 [2]): is not an agonist | Effect on the response to eugenol in a binary mix (mouse Olfr73 [2]): antagonizes eugenol | Agonism/antagonism, HEK293 short odor Ca2+ Gq11 (mouse Olfr73 [3]): Antagonist | Agonism/antagonism, OSN Ca2+ Mouse (mouse Olfr73 [1]; 5-s pulse): Inactive | Response to ligand applied alone (mouse Olfr73 [1]; mouse Olfr73-OSNs, 5-s pulse, listed as di-IEG): did not elicit any response; also recorded: failed to activate any response | Effect on the response to eugenol in a binary mix (mouse Olfr73 [1]; mouse Olfr73-OSNs, listed as di-IEG): not able to antagonize; also recorded: additive increase | Agonism/antagonism, HEK293 short odor Ca2+ Gs/olf (mouse Olfr73 [4]; 5-s pulse): Antagonist

CCCCCCCC=O [octanal]
Response to ligand applied alone (Olfr599): evoked reliable neuronal responses
